Counter-ions that a name gives are not always drawn.
target: human 5-HT3 serotonin receptors (Homo sapiens (Human), UniProt P46098); assay: [3H]BRL 43694 competition binding; conditions: CHO cell membranes, [3H]BRL 43694, Cheng Prusoff; read-out: h-5HT3 Ki
Sequence (P46098 24-478): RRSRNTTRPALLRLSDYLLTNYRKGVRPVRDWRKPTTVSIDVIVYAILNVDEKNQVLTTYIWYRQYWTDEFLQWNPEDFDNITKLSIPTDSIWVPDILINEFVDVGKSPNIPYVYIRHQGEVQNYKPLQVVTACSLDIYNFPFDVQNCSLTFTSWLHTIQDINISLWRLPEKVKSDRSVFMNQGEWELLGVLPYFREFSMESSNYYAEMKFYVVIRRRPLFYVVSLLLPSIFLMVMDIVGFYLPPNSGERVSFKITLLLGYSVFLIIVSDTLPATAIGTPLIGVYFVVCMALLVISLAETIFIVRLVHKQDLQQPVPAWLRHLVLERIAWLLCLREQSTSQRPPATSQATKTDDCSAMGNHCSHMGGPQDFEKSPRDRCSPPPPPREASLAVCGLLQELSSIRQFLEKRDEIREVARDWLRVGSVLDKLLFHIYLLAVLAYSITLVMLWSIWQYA

| SMILES | Ki |
| --- | --- |
| CN(C)c1cccc2cc(C(=O)N[C@@H]3C4CCN(CC4)C34CC4)sc12 [(R)-178, (R)-7-(dimethylamino)-N-(1′-azaspiro[cyclopropane-1,2′-bicyclo[2.2.2]octan]-3′-yl)benzo[b]thiophene-2-carboxamide hydrochloride] | 400 nM |
| O=C(N[C@@H]1C2CCN(CC2)C12CC2)c1cc2cccc(-c3nccs3)c2s1 [(R)-181, (R)—N-(1′-azaspiro[cyclopropane-1,2′-bicyclo[2.2.2]octan]-3′-yl)-7-(thiazol-2-yl)benzo[b]thiophene-2-carboxamide hydrochloride] | 83 nM |
| O=C(N[C@@H]1C2CCN(CC2)C12CC2)c1ccc2oc(C3CC3)cc2c1 [(R)-183, (R)-2-cyclopropyl-N-(1′-azaspiro[cyclopropane-1,2′-bicyclo[2.2.2]octan]-3′-yl)benzofuran-5-carboxamide hydrochloride] | > 10000 nM |
| CC(C)(C)c1cccc2cc(C(=O)N[C@@H]3C4CCN(CC4)C34CC4)sc12 [(R)-184, (R)-7-(tert-butyl)-N-(1′-azaspiro[cyclopropane-1,2′-bicyclo[2.2.2]octan]-3′-yl)benzo[b]thiophene-2-carboxamide hydrochloride] | 110 nM |
| O=C(N[C@@H]1C2CCN(CC2)C12CC2)c1cc2cccc(-c3ccccc3)c2s1 [(R)-186, (R)-7-phenyl-N-(1′-azaspiro[cyclopropane-1,2′-bicyclo[2.2.2]octan]-3′-yl)benzo[b]thiophene-2-carboxamide hydrochloride] | 30 nM |
| CC1(c2cccc3cc(C(=O)N[C@@H]4C5CCN(CC5)C45CC5)sc23)CC1 [(R)-188, (R)-7-(1-methylcyclopropyl)-N-(1′-azaspiro[cyclopropane-1,2′-bicyclo[2.2.2]octan]-3′-yl)benzo[b]thiophene-2-carboxamide-hydrochloride] | 200 nM |
| CCOc1ccc2cc(C(=O)N[C@@H]3C4CCN(CC4)C34CC4)sc2c1 [(R)-189, (R)-6-ethoxy-N-(1′-azaspiro[cyclopropane-1,2′-bicyclo[2.2.2]octan]-3′-yl)benzo[b]thiophene-2-carboxamide hydrochloride] | > 10000 nM |
| CCOc1cccc2cc(C(=O)N[C@@H]3C4CCN(CC4)C34CC4)sc12 [(R)-190, (R)-7-ethoxy-N-(1′-azaspiro[cyclopropane-1,2′-bicyclo[2.2.2]octan]-3′-yl)benzo[b]thiophene-2-carboxamide hydrochloride] | 290 nM |
| CC(C)Oc1cccc2cc(C(=O)N[C@@H]3C4CCN(CC4)C34CC4)sc12 [(R)-191, (R)-7-isopropoxy-N-(1′-azaspiro[cyclopropane-1,2′-bicyclo[2.2.2]octan]-3′-yl)benzo[b]thiophene-2-carboxamide hydrochloride] | 160 nM |
| COc1c(Cl)ccc2cc(C(=O)N[C@@H]3C4CCN(CC4)C34CC4)sc12 [(R)-192, (R)-6-chloro-7-methoxy-N-(1′-azaspiro[cyclopropane-1,2′-bicyclo[2.2.2]octan]-3′-yl)benzo[b]thiophene-2-carboxamide hydrochloride] | > 10000 nM |
| COc1c(C)ccc2cc(C(=O)N[C@@H]3C4CCN(CC4)C34CC4)sc12 [(R)-193, (R)-7-methoxy-6-methyl-N-(1′-azaspiro[cyclopropane-1,2′-bicyclo[2.2.2]octan]-3′-yl)benzo[b]thiophene-2-carboxamide hydrochloride] | 6000 nM |
| O=C(N[C@@H]1C2CCN(CC2)C12CC2)c1n[nH]c2ccccc12 [(R)-194, (R)—N-(1′-azaspiro[cyclopropane-1,2′-bicyclo[2.2.2]octan]-3′-yl)-1H-indazole-3-carboxamide hydrochloride] | 79 nM |
| Cc1ccc2cc(C(=O)N[C@@H]3C4CCN(CC4)C34CC4)sc2c1C1CC1 [(R)-196, (R)-7-cyclopropyl-6-methyl-N-(1′-azaspiro[cyclopropane-1,2′-bicyclo[2.2.2]octan]-3′-yl)benzo[b]thiophene-2-carboxamide hydrochloride] | 610 nM |
